Measurements from patent US20110021471A1, “REDUCING Abeta42 LEVELS AND Abeta AGGREGATION” (priority 2007, published 2011).
Read-outs that look alike come from different tables or passages of the source.

Tests used:
[1] = biological target: amyloid-β peptides (Aβ1-40, Aβ1-36, Aβ1-28, Flag-Aβ25-36) (Homo sapiens, UniProt P05067); experiment: Photoaffinity labelling of amyloid-β peptides; assay type: binding
Procedure: (§1) FIG. 1. […] The top panel is for anti-biotin staining; the middle panel is for anti-FLAG staining; and the bottom panel is an overlay of anti-biotin (red and anti-Flag green, LiCor Odyssey imaging). (E) Same samples as in D, but analyzed using an ELISA. Following crosslinking, C100Flag and N100 Flag were captured using anti-FLAG plate, and biotin incorporation was measured using streptavidin-HRP. […] Fen-B (50 μM) was crosslinked to Aβ (10 μM). Biotin labeling was measured following capture with an anti-Aβ1-16 antibody and detection with streptavidin-HRP.
(§2) Photoaffinity labelling. All experiments used the following general protocol. Samples (recombinant or synthetic peptides, cell lysates and membrane preparations) were exposed in borosilicate test tubes to ultraviolet light (350 nm) in a Rayonet Photoreactor R100 (RPR-3500 lamps, Southern New England Ultra Violet Company) in a cold room (4° C.) for 30 minutes or as otherwise noted. Crosslinked samples were analyzed by ELISA for biotin incorporation, or analyzed directly by SDS-PAGE (Criterion-XT, Bio-Rad), or after precipitation with streptavidin ultralink plus beads (Pierce). After immunblotting, proteins were detected using chemiluminesence (ECL Plus, GEHealthcare) or near-infrared fluorescence (LiCor Odyssey). Full-length APP and APP CTFs (CTF83, CTF99) were detected with CT20, a rabbit polyclonal antibody against the C-terminus of APP. Biotin was detected with an affinity-purified rabbit polyclonal antibody (Bethyl). Cell-based screens for amyloid-β modulation. Human H4 neuroglioma cells (American Type Culture Collection, ATCC) expressing wild-type APP695 protein or CTF105 fused to secreted alkaline phosphatase which is efficiently processed to APP CTFs (CTF83, CTF99) and produce high levels of amyloid-β, were used for the cell-based screens as previously described. Cells were incubated for 5-6 hours in the presence of the various compounds in Opti-Mem culture medium containing 1% fetal bovine serum. Compounds were dissolved in dimethylsulphoxide (DMSO; 0.5% final concentration) and diluted 200-fold. Media was analyzed for various amyloid-β species (40, 42 and total) using ELISAs as described herein. The EC50 values for changes in amyloid-β species were calculated by fitting sigmoid dose-response curves using nonlinear regression in Prism (GraphPad) and are shown as values±s.e.m. Statistical analysis. Data are presented as either percentage control or mean±s.e.m. Results were analyzed using Prism (Graph Pad) with t-tests or one-way analysis of variance analyses (ANOVAs) with Dunnett's post-hoc correction for comparison of multiple samples to a control. Statistical significance is shown as P,0.05 (one asterisk), P,0.01 (two asterisks) or P,0.001 (three asterisks).
Because the putative binding region of GSMs is also found in full-length APP, labeling of both APP fragments in cells was assayed.

APP(C100)-Flag = biological target: T1, APP(C100)-Flag (Homo sapiens, UniProt P05067); experiment: Photoaffinity labelling of APP(C100)-Flag and competition; assay type: binding; settings: for competition of Fen-B labeling of C100Flag: Fen-B 10 μM, C100Flag 1 μM, competitor 100 μM
T1 construct: APP(C100)-Flag, comprising the 99 C-terminal residues of APP plus a methionine at the N-terminus; added methionine (N)
T1 sequence (P05067 672-770 limits assumed): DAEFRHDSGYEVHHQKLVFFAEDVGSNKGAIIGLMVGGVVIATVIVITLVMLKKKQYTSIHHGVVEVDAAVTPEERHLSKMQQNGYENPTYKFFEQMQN
Procedure: as §1, §2
The ability of a purified, recombinant Flag-tagged γ-secretase substrate derived from APP (APP(C100)-Flag, comprising the 99 C-terminal residues of APP plus a methionine at the N-terminus) to be labeled by Fen-B and Flurbi-BpB was tested.

APP-CTF = biological target: T2, APP-CTF (Homo sapiens, UniProt P05067); experiment: Photoaffinity labelling of APP and APP CTF in H4 cell membrane fractions and competition; assay type: binding; settings: for competition of APP-CTF labeling by Fen-B and Flurbi-BpB: photoprobe 25 μM, competitor 200 μM
T2 construct: this protein was designated α-secretase-derived APP CTF (CTF83) on the basis of molecular weight; expressed in transfected cells
T2 sequence (P05067 688-770 limits assumed): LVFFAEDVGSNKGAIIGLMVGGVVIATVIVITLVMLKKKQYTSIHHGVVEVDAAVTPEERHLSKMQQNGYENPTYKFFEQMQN
Procedure: Photoaffinity labelling. All experiments used the following general protocol. Samples (recombinant or synthetic peptides, cell lysates and membrane preparations) were exposed in borosilicate test tubes to ultraviolet light (350 nm) in a Rayonet Photoreactor R100 (RPR-3500 lamps, Southern New England Ultra Violet Company) in a cold room (4° C.) for 30 minutes or as otherwise noted. Crosslinked samples were analyzed by ELISA for biotin incorporation, or analyzed directly by SDS-PAGE (Criterion-XT, Bio-Rad), or after precipitation with streptavidin ultralink plus beads (Pierce). After immunblotting, proteins were detected using chemiluminesence (ECL Plus, GEHealthcare) or near-infrared fluorescence (LiCor Odyssey). Full-length APP and APP CTFs (CTF83, CTF99) were detected with CT20, a rabbit polyclonal antibody against the C-terminus of APP. Biotin was detected with an affinity-purified rabbit polyclonal antibody (Bethyl). Cell-based screens for amyloid-β modulation.

H4Bri-C99 (CTF-3) = system: H4Bri-C99 (CTF-3)
Procedure: FIG. 6. […] Parent GSMs and biotin tagged photoactivatable GSMs were evaluated for their effects on Aβ secreted from H4Bri-C99 (CTF-3). Cells were treated with compounds for 6 hours and Aβ measured by ELISA. […] Changes in Aβ (percent control)±s.e.m., n=3.
as §2

γ-secretase [2] = biological target: T3, γ-secretase (Homo sapiens, UniProt P49768); experiment: GSM activity of compounds that bind Aβ or Aβ amyloid (cell-based or cell-free γ-secretase assays, FIG. 12); settings: two doses (10 and 100 μM)
Procedure: A literature search was performed to identify compounds reported to bind to the Aβ peptide directly or amyloid. These candidates were initially tested in cell-based assays or cell-free in vitro γ-secretase assays at two doses (10 and 100 μM).
Finally, X-34 was tested for its ability to modulate Aβ42 amounts in an APP transgenic mouse (Tg2576).

[3] = system: Human H4 neuroglioma cells expressing wild-type APP695 protein or CTF105; experiment: Cell-based screens for amyloid-β modulation (H4 cells, ELISA); settings: for Aβ42 levels: H4 cells expressing APP
From the text: Photoaffinity labelling. All experiments used the following general protocol. […] Cell-based screens for amyloid-β modulation. […] Statistical analysis.

γ-secretase [4] = biological target: T3, γ-secretase; experiment: Cell-free in vitro γ-secretase assay; assay type: biochemical; settings: for Aβ40 in cell-free γ-secretase assay / total Aβ production in cell-free γ-secretase assay: increasing doses
Procedure: FIG. 5. Fenofibrate-Biotin (Fen-B) is an Aβ42 raising GSM that labels cell-derived APP-CTF. (A) The effects of fenofibrate and fenofibrate-biotin (Fen-B) on Aβ production were investigated in a cell-free in vitro γ-secretase assay performed as described in the methods. […] Percent control Aβ species±s.e.m., n=2. (B) Fen-B labels APP-CTFs from cells lysates. CHAPSO solubilized membrane fractions from H4 APP-CTF-105-AP cells were irradiated (350 nm) in the presence of Fen-B (50 μM) for 30 minutes. Biotinylated material was precipitated with streptavidin overnight (SAv). Beads were washed (3×) and then incubated with XT sample buffer, heated to 95° C., run on 12% Criterion XT gels, and transferred to nitrocellulose membranes. Blots were probed for biotin (Bethyl) and APP (CT20). Excess drug (Fen-B) and unlableled APP-CTF is detected in the flow-through from the beads (unbound lane). Biotin bound to streptavdin (SAv) is detected by the anti-biotin antibody. APP-CTF-83 is pulled down in lane 2 and is reactive with anti-biotin and anti-APP (CT20).
Congo red (CR) and chrysamine G (CG), two of the most well characterized amyloid-β dyes, act as GSMs in cell-free γ-secretase assays.

H4 APPwt cells = experiment: Immunoprecipitation-mass spectrometry of media from H4 APPwt cells; assay type: cell-based, human
Procedure: FIG. 14. Amyloid binding compounds alter the cleavage of Aβ similar to other established γ-secretase modulators Immunoprecipitation-mass spectrometry studies were conducted on media from H4 APPwt cells grown in the presence of test compounds for 16 hours. Conditions were: control (DMSO, 0.5%), sulindac sulfide (SS; 25 μM), chrysamine g (CG; 25 μM), and X-34 (25 μM). SS was included as a control GSM known to reduce Aβ42 and increase Aβ38. Spectra shown are representative of two experiments with 2-3 replicates each. Identified Aβ peptides based on calculated mass (m/z) are indicated above the peaks.

## CC(C(=O)O)c1ccc(-c2ccc(NC(=O)COc3ccc(C(=O)c4ccc(OCC(=O)NCCNC(=O)CCCC[C@H]5SC[C@H]6NC(=O)N[C@H]65)cc4)cc3)cc2)c(F)c1 (stereo in doubt) [Flurbi-BpB, 2-(2-fluoro-4′-(2-(4-(4-(2-oxo-2-(2-(5-((3aR,4R,6aS)-2-oxohexahydro-1H-thieno[3,4-d]imidazol-4 yl)pentanamido)ethylamino)ethoxy)benzoyl)phenoxy)acetamido)biphenyl-4-yl)propanoic acid]
[1]
  labeling of Aβ1-36: labeled
  labeling of Flag-tagged Aβ25-36: preferentially label
APP(C100)-Flag
  labeling of APP(C100)-Flag: label a recombinant APP c-secretase substrate (APP(C100)-Flag) with similar potency
APP-CTF; microsomal membrane fractions from H4 cells expressing wild-type APP
  labeling of full-length APP and APP CTFs: labeled full-length APP and APP CTFs
H4Bri-C99 (CTF-3); 6 hours
  Aβ42 (direction of change): lowered Aβ42

## CNc1ccc(-c2nc3ccccc3s2)cc1 [BTA-1]
γ-secretase [2]
  GSM activity: did not act as GSMs

## O=C(O)CCCC[C@@H]1SC[C@@H]2NC(=O)N[C@@H]21 [Biotin]
H4Bri-C99 (CTF-3); 6 hours
  Aβ levels: no effect

## O=S(=O)(O)c1cccc2c(-c3ccc(Nc4ccccc4)c4c(S(=O)(=O)O)cccc34)ccc(Nc3ccccc3)c12 [Bis-ANS, 4,49-dianilino-1,19-binaphthyl-5,59-disulphonic acid]
γ-secretase [2]
  GSM activity: Aβ42-lowering
[3]
  Aβ42 levels: decrease

## O=C(CCCC[C@H]1SC[C@H]2NC(=O)N[C@H]21)NCCNC(=O)COc1ccc(C(=O)c2ccccc2)cc1 [BpB, N-(2-(2-(4-benzoylphenoxy)acetamido)ethyl)-5-((3aR,4R,6aS)-2-oxohexahydro-1Hthieno[3,4-d]imidazol-4-yl)pentanamide]
[1]
  labeling of Aβ1-36: minor labelling
H4Bri-C99 (CTF-3); 6 hours
  Aβ42 (direction of change): increased Aβ42

## O=C(O)c1cc(/N=N/c2ccc(-c3ccc(/N=N/c4ccc(O)c(C(=O)O)c4)cc3)cc2)ccc1O [Chrysamine G]
γ-secretase [4]
  Aβ42 in cell-free γ-secretase assay: lowered Aβ42 selectively
  Aβ40 in cell-free γ-secretase assay: lowered Aβ40 at higher doses
  total Aβ production in cell-free γ-secretase assay: without decreasing total Aβ production
γ-secretase [4]; listed as CG
  Aβ42 in cell-free γ-secretase assay: lowered Aβ42 levels
[3]
  Aβ42 levels: decrease
H4 APPwt cells
  shorter amyloid-β (IP-MS): increased amounts of shorter amyloid-β
H4 APPwt cells; 25 μM, 16 hours
  Aβ33 levels (IP-MS): raise Aβ33 levels more effectively than SS
  levels of Aβ42 (IP-MS): consistently decrease levels of Aβ42

## Nc1c(/N=N/c2ccc(-c3ccc(/N=N/c4cc(S(=O)(=O)O)c5ccccc5c4N)cc3)cc2)cc(S(=O)(=O)O)c2ccccc12 [Congo red]
γ-secretase [4]
  Aβ42 in cell-free γ-secretase assay: lowered Aβ42 selectively
  total Aβ production in cell-free γ-secretase assay: without decreasing total Aβ production
γ-secretase [4]; listed as CR
  Aβ42 in cell-free γ-secretase assay: lowered Aβ42 levels

## O=C1NC(=O)c2cc(Nc3ccccc3)c(Nc3ccccc3)cc21 [DAPH, 4,5-dianilinophthalimide]
γ-secretase [2]
  GSM activity: Aβ42-raising
[3]
  Aβ42 levels: selectively increase

## CC(=O)Oc1ccccc1C(=O)O [aspirin]
APP(C100)-Flag
  competition of Fen-B labeling of C100Flag: did not compete

## O=C(c1ccccc1)c1ccccc1 [benzophenone]
H4Bri-C99 (CTF-3); 6 hours
  Aβ42 (direction of change): increased Aβ42

## Clc1ccc(C(c2ccc(Cl)cc2)n2cc[n+](CC(OCc3ccc(Cl)cc3Cl)c3ccc(Cl)cc3Cl)c2)cc1 (stereo not drawn) [calmidazolium]
γ-secretase [2]
  GSM activity: Aβ42-raising

## CC(C)OC(=O)C(C)(C)Oc1ccc(C(=O)c2ccc(Cl)cc2)cc1 [fenofibrate]
H4Bri-C99 (CTF-3); 33 μM, 6 hours
  Aβ42 increase: 300%
H4Bri-C99 (CTF-3); human, 6 h
  Toxicity, based on cell morphology and XTT assay: noted at higher concentrations (150, 200 μM)

## COc1ccc2[nH]cc(CCNC(C)=O)c2c1 [melatonin]
γ-secretase [2]
  GSM activity: did not act as GSMs

## COc1ccc2cc([C@H](C)C(=O)O)ccc2c1 [naproxen]
APP(C100)-Flag
  competition of Fen-B labeling of C100Flag: did not compete

## CSc1ccc(/C=C2/C(C)=C(CC(=O)O)c3cc(F)ccc32)cc1 [sulindac sulfide]
γ-secretase [4]
  Aβ42 in cell-free γ-secretase assay: lowered Aβ42 levels
  Aβ40 in cell-free γ-secretase assay: lowered Aβ40 at higher doses
  total Aβ production in cell-free γ-secretase assay: without decreasing total Aβ production
APP-CTF
  competition of APP-CTF labeling by Fen-B and Flurbi-BpB: decreases labeling of APP-CTF
APP-CTF; photoprobes 50 μM, data not shown
  competition of FL-APP and APP CTF labeling by Fen-B and Flurbi-BpB: prevents labeling of FL-APP and APP CTF
H4 APPwt cells; 25 μM, 16 hours
  levels of Aβ42 (IP-MS): consistently decrease levels of Aβ42

## CC1=C(CC(=O)O)c2cc(F)ccc2/C1=C\c1ccc(S(C)(=O)=O)cc1 [sulindac sulfone]
APP(C100)-Flag
  competition of Fen-B labeling of C100Flag: not

## Aβ28-36: synthetic peptide of the putative GSM binding region (KGAIIGLMV; Amyloid-beta protein 42; UniProt P05067 699-707, looked up, fragment)
[1]; competitor 100 μM, FLAG-Aβ-25-36 10 μM
  competition for labeling of FLAG-Aβ-25-36 by Fen-B or Flurbi-BpB: competes
APP-CTF
  competition of APP-CTF labeling by Fen-B and Flurbi-BpB: decreases labeling of APP-CTF

## NH2-FEGKF-CONH2 [I1]
[3]
  total amyloid-β amounts: without lowering total amyloid-β amounts
  Aβ42 levels: elevated Aβ42 production
